Laboratory results as given in patent publication US9695155B2, “Herbicidal substituted pyrimidinyloxy benzene compounds” (E. I. DU PONT DE NEMOURS AND COMPANY, priority 2013, dated 2017).

Key:
[1] = tested on: barnyardgrass; test: Test C preemergence; assay type: in vivo, Echinochloa crus-galli; details: for Barnyardgrass plant response rating: preemergence
Procedure, shortened: (§1)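 Sown in loam/sand → sprayed pre-emergence; or grown to 1–4 leaves in peat mix → sprayed post-emergence. Same solvent/surfactant formulation both ways. Greenhouse 13–15 d. Score 0–100 visual.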

[2] = tested on: wheat; test: Test A postemergence; assay type: in vivo, Triticum aestivum; details: 0 to 100 scale where 0 is no effect and 100 is complete control
Procedure, shortened: (§2)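 Greenhouse pot test, loam/sand soil. Formulation: non-phytotoxic solvent mix plus surfactant. Pre: directed spray onto soil after sowing. Post: plants at 1–2 leaf, 2–10 cm. Rated visually vs untreated controls at ~10 d, 0 (no effect) to 100 (complete control).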

[3] = tested on: large (Lg) crabgrass; test: Test C preemergence; assay type: in vivo, Digitaria sanguinalis; details: for Crabgrass, Large plant response rating: preemergence
Procedure, shortened: as §1

[4] = tested on: ragweed; test: Test C postemergence; assay type: in vivo, Ambrosia elatior; details: for Plant response rating, Ragweed: scale 0 to 100 (0 no effect, 100 complete control)
Procedure, shortened: as §1

[5] = tested on: blackgrass; test: Test C preemergence; assay type: in vivo, Alopecurus myosuroides; details: for Blackgrass plant response rating: preemergence
Procedure, shortened: as §1

[6] = tested on: barnyardgrass; test: Test A preemergence; assay type: in vivo, Echinochloa crus-galli; details: 0 to 100 scale where 0 is no effect and 100 is complete control
Procedure, shortened: as §2

[7] = tested on: wheat, winter; test: Test C preemergence; assay type: in vivo, Triticum aestivum; details: preemergence
Procedure, shortened: as §1

[8] = tested on: soybean; test: Test C postemergence; assay type: in vivo, Glycine max; details: for Plant response rating, Soybean: scale 0 to 100 (0 no effect, 100 complete control)
Procedure, shortened: as §1

[9] = tested on: oilseed rape; test: Test C postemergence; assay type: in vivo, Brassica napus; details: for Plant response rating, Oilseed Rape: scale 0 to 100 (0 no effect, 100 complete control)
Procedure, shortened: as §1

[10] = tested on: giant foxtail; test: Test C postemergence; assay type: in vivo, Setaria faberii; details: for Plant response rating, Foxtail, Giant: scale 0 to 100 (0 no effect, 100 complete control)
Procedure, shortened: as §1

[11] = tested on: blackgrass; test: Test C postemergence; assay type: in vivo, Alopecurus myosuroides; details: for Plant response rating, Blackgrass: scale 0 to 100 (0 no effect, 100 complete control)
Procedure, shortened: as §1

[12] = tested on: soybean; test: Test C preemergence; assay type: in vivo, Glycine max; details: preemergence
Procedure, shortened: as §1

[13] = tested on: rice; test: Test B flooded paddy test; assay type: in vivo, Oryza sativa; details: Flood, 250 g ai/ha; 0 to 100 scale where 0 is no effect and 100 is complete control
Procedure, shortened: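 Greenhouse flooded-pot test: compounds dosed into 3 cm standing water over 2-leaf plants, flood held constant. Rated visually after 13–15 days on 0–100 (complete control = 100); a dash marks no test result.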

[14] = 16 g ai/ha, scale 0 to 100 (0 no effect, 100 complete control)
[15] = 62 g ai/ha, scale 0 (no effect) to 100 (complete control)
[16] = 125 g ai/ha, scale 0 (no effect) to 100 (complete control)
[17] = Preemergence, 31 g ai/ha, scale 0 to 100, 0 no effect, 100 complete control
[18] = 16 g ai/ha, postemergence, 0 is no effect, 100 is complete control
[19] = 125 g ai/ha, postemergence, visual rating

`Cc1cnc(Oc2cccc(C#N)c2-n2cc(I)cn2)nc1` [Compound 136] was tested, and the “Barnyardgrass plant response rating” value [1, 14] was 0, the “Barnyardgrass plant response rating” value [1, 15] was 60 and the “Barnyardgrass plant response rating” value [1, 16] was 100. The “Plant response rating, Barnyardgrass” value [1, 17] was 10, the “Wheat plant response rating” value ([2]; 125 g ai/ha) was 0 and the “Plant response rating, Wheat” value ([2]; 500 g ai/ha) was 50. The “Crabgrass, Large plant response rating” value [3, 14] was 35, the “Crabgrass, Large plant response rating” value [3, 15] was 100 and the “Crabgrass, Large plant response rating” value [3, 16] was 100. The “Plant response rating, Crabgrass, Large” value [3, 17] was 100, the “Plant response rating (0 to 100), Ragweed” value [4, 18] was 25 and the “Plant response rating, Ragweed” value [4, 19] was 45. The “Plant response rating, Ragweed” value ([4]; Postemergence, 62 g ai/ha) was 45, the “Blackgrass plant response rating” value [5, 14] was 0 and the “Blackgrass plant response rating” value [5, 15] was 75. For the same compound, the “Blackgrass plant response rating” value [5, 16] was 80, the “Plant response rating, Blackgrass” value [5, 17] was 0 and the “Plant response rating, Barnyardgrass” value ([6]; 125 g ai/ha) was 60. The “Barnyardgrass plant response rating” value ([6]; 500 g ai/ha) was 100, the “Wheat plant response rating” value [7, 14] was 0 and the “Wheat plant response rating” value [7, 15] was 0. For the same compound, the “Wheat plant response rating” value [7, 16] was 0, the “Plant response rating (0 to 100), Soybean” value [8, 18] was 35 and the “Plant response rating, Soybean” value [8, 19] was 90. For the same compound, the “Plant response rating, Soybean” value ([8]; Postemergence, 62 g ai/ha) was 75, the “Plant response rating (0 to 100), Oilseed Rape” value [9, 18] was 0 and the “Plant response rating, Oilseed Rape” value [9, 19] was 5. For the same compound, the “Plant response rating, Oilseed Rape” value ([9]; Postemergence, 62 g ai/ha) was 5, the “Plant response rating (0 to 100), Foxtail, Giant” value [10, 18] was 5 and the “Plant response rating, Foxtail, Giant” value [10, 19] was 10. For the same compound, the “Plant response rating, Foxtail, Giant” value ([10]; Postemergence, 62 g ai/ha) was 5, the “Plant response rating (0 to 100), Blackgrass” value [11, 18] was 0 and the “Plant response rating, Blackgrass” value [11, 19] was 5. For the same compound, the “Plant response rating, Blackgrass” value ([11]; Postemergence, 31 g ai/ha, 13 to 15 days) was 5, the “Plant response rating, Blackgrass” value ([11]; Postemergence, 62 g ai/ha) was 5 and the “Soybean plant response rating” value [12, 14] was 20. For the same compound, the “Soybean plant response rating” value [12, 15] was 50, the “Soybean plant response rating” value [12, 16] was 85 and the “Plant response rating, Rice” value [13] was 15.
